Settings: 1.0% DMSO, 24-hour incubation at ambient temperature, maximum theoretical 100 μM; for pH 2 solubility: 0.1N HCl, first value of the cell; for pH 7 solubility: 1×PBS buffer (pH 7.4), second value of the cell

Row | Compound | pH 2 solubility | pH 7 solubility
1 | CC(C)(C#Cc1ccc(-c2ccc(Cl)c3c(N(C(=O)OCCOCCOP(=O)(O)O)S(C)(=O)=O)nn(CC(F)(F)F)c23)c([C@H](Cc2cc(F)cc(F)c2)NC(=O)Cn2nc(C(F)(F)F)c3c2C(F)(F)[C@@H]2C[C@H]32)n1)S(C)(=O)=O [Compound 106, 2-(2-(phosphonooxy)ethoxy)ethyl (4-chloro-7-(2-((S)-1-(2-((3bS,4aR)-5,5-difluoro-3-(trifluoromethyl)-3b,4,4a,5-tetrahydro-1H-cyclopropa[3,4]cyclopenta[1,2-c]pyrazol-1-yl)acetamido)-2-(3,5-difluorophenyl)ethyl)-6-(3-methyl-3-(methylsulfonyl)but-1-yn-1-yl)pyridin-3-yl)-1-(2,2,2-trifluoroethyl)-1H-indazol-3-yl)(methylsulfonyl)carbamate] | 4 μM | 100 μM
2 | CC(C)(C#Cc1ccc(-c2ccc(Cl)c3c(N(C(=O)OCCOCCOCCO)S(C)(=O)=O)nn(CC(F)(F)F)c23)c([C@H](Cc2cc(F)cc(F)c2)NC(=O)Cn2nc(C(F)(F)F)c3c2C(F)(F)[C@@H]2C[C@H]32)n1)S(C)(=O)=O [Compound 107, 2-(2-(2-hydroxyethoxy)ethoxy)ethyl (4-chloro-7-(2-((S)-1-(2-((3bS,4aR)-5,5-difluoro-3-(trifluoromethyl)-3b,4,4a,5-tetrahydro-1H-cyclopropa[3,4]cyclopenta[1,2-c]pyrazol-1-yl)acetamido)-2-(3,5-difluorophenyl)ethyl)-6-(3-methyl-3-(methylsulfonyl)but-1-yn-1-yl)pyridin-3-yl)-1-(2,2,2-trifluoroethyl)-1H-indazol-3-yl)(methylsulfonyl)carbamate] | 4 μM | 1 μM
3 | CC(C)(C#Cc1ccc(-c2ccc(Cl)c3c(N(C(=O)OCCOCCOCCOP(=O)(O)O)S(C)(=O)=O)nn(CC(F)(F)F)c23)c([C@H](Cc2cc(F)cc(F)c2)NC(=O)Cn2nc(C(F)(F)F)c3c2C(F)(F)[C@@H]2C[C@H]32)n1)S(C)(=O)=O [Compound 108, 2-(2-(2-(phosphonooxy)ethoxy)ethoxy)ethyl (4-chloro-7-(2-((S)-1-(2-((3bS,4aR)-5,5-difluoro-3-(trifluoromethyl)-3b,4,4a,5-tetrahydro-1H-cyclopropa[3,4]cyclopenta[1,2-c]pyrazol-1-yl)acetamido)-2-(3,5-difluorophenyl)ethyl)-6-(3-methyl-3-(methylsulfonyl)but-1-yn-1-yl)pyridin-3-yl)-1-(2,2,2-trifluoroethyl)-1H-indazol-3-yl)(methylsulfonyl)carbamate] | 1 μM | 100 μM
4 | CC(C)(C#Cc1ccc(-c2ccc(Cl)c3c(N(C(=O)OCCOCCOCCOCCOP(=O)(O)O)S(C)(=O)=O)nn(CC(F)(F)F)c23)c([C@H](Cc2cc(F)cc(F)c2)NC(=O)Cn2nc(C(F)(F)F)c3c2C(F)(F)[C@@H]2C[C@H]32)n1)S(C)(=O)=O [Compound 110, 2-(2-(2-(2-(phosphonooxy)ethoxy)ethoxy)ethoxy)ethyl (4-chloro-7-(2-((S)-1-(2-((3bS,4aR)-5,5-difluoro-3-(trifluoromethyl)-3b,4,4a,5-tetrahydro-1H-cyclopropa[3,4]cyclopenta[1,2-c]pyrazol-1-yl)acetamido)-2-(3,5-difluorophenyl)ethyl)-6-(3-methyl-3-(methylsulfonyl)but-1-yn-1-yl)pyridin-3-yl)-1-(2,2,2-trifluoroethyl)-1H-indazol-3-yl)(methylsulfonyl)carbamate] | 1 μM | 100 μM
5 | CC(C)(C#Cc1ccc(-c2ccc(Cl)c3c(N(C(=O)OCCCS(=O)(=O)O)S(C)(=O)=O)nn(CC(F)(F)F)c23)c([C@H](Cc2cc(F)cc(F)c2)NC(=O)Cn2nc(C(F)(F)F)c3c2C(F)(F)[C@@H]2C[C@H]32)n1)S(C)(=O)=O [Compound 111, 3-(((4-chloro-7-(2-((S)-1-(2-((3bS,4aR)-5,5-difluoro-3-(trifluoromethyl)-3b,4,4a,5-tetrahydro-1H-cyclopropa[3,4]cyclopenta[1,2-c]pyrazol-1-yl)acetamido)-2-(3,5-difluorophenyl)ethyl)-6-(3-methyl-3-(methylsulfonyl)but-1-yn-1-yl)pyridin-3-yl)-1-(2,2,2-trifluoroethyl)-1H-indazol-3-yl)(methylsulfonyl)carbamoyl)oxy)propane-1-sulfonic acid] | 33 μM | 42 μM
6 | C[C@@H](OC(=O)N(c1nn(CC(F)(F)F)c2c(-c3ccc(C#CC(C)(C)S(C)(=O)=O)nc3[C@H](Cc3cc(F)cc(F)c3)NC(=O)Cn3nc(C(F)(F)F)c4c3C(F)(F)[C@@H]3C[C@H]43)ccc(Cl)c12)S(C)(=O)=O)C(=O)O [Compound 116, (R)-2-(((4-chloro-7-(2-((S)-1-(2-((3bS,4aR)-5,5-difluoro-3-(trifluoromethyl)-3b,4,4a,5-tetrahydro-1H-cyclopropa[3,4]cyclopenta[1,2-c]pyrazol-1-yl)acetamido)-2-(3,5-difluorophenyl)ethyl)-6-(3-methyl-3-(methylsulfonyl)but-1-yn-1-yl)pyridin-3-yl)-1-(2,2,2-trifluoroethyl)-1H-indazol-3-yl)(methylsulfonyl)carbamoyl)oxy)propanoic acid] | 1/1 μM | 1/1 μM

Further lines, results first:

Row | pH 2 solubility | pH 7 solubility | Compound
7 | 2 μM | 100 μM | CC(C)(C#Cc1ccc(-c2ccc(Cl)c3c(N(C(=O)OCCOP(=O)(O)O)S(C)(=O)=O)nn(CC(F)(F)F)c23)c([C@H](Cc2cc(F)cc(F)c2)NC(=O)Cn2nc(C(F)(F)F)c3c2C(F)(F)[C@@H]2C[C@H]32)n1)S(C)(=O)=O [Compound 100, 2-(phosphonooxy)ethyl (4-chloro-7-(2-((S)-1-(2-((3bS,4aR)-5,5-difluoro-3-(trifluoromethyl)-3b,4,4a,5-tetrahydro-1H-cyclopropa[3,4]cyclopenta[1,2-c]pyrazol-1-yl)acetamido)-2-(3,5-difluorophenyl)ethyl)-6-(3-methyl-3-(methylsulfonyl)but-1-yn-1-yl)pyridin-3-yl)-1-(2,2,2-trifluoroethyl)-1H-indazol-3-yl)(methylsulfonyl)carbamate]
8 | 1 μM | 100 μM | CC(C)(C#Cc1ccc(-c2ccc(Cl)c3c(N(C(=O)OCCCCOP(=O)(O)O)S(C)(=O)=O)nn(CC(F)(F)F)c23)c([C@H](Cc2cc(F)cc(F)c2)NC(=O)Cn2nc(C(F)(F)F)c3c2C(F)(F)[C@@H]2C[C@H]32)n1)S(C)(=O)=O [Compound 102, 4-(phosphonooxy)butyl (4-chloro-7-(2-((S)-1-(2-((3bS,4aR)-5,5-difluoro-3-(trifluoromethyl)-3b,4,4a,5-tetrahydro-1H-cyclopropa[3,4]cyclopenta[1,2-c]pyrazol-1-yl)acetamido)-2-(3,5-difluorophenyl)ethyl)-6-(3-methyl-3-(methylsulfonyl)but-1-yn-1-yl)pyridin-3-yl)-1-(2,2,2-trifluoroethyl)-1H-indazol-3-yl)(methylsulfonyl)carbamate]
9 | 1/1 μM | 1/1 μM | CC(C)(C#Cc1ccc(-c2ccc(Cl)c3c(N(C(=O)OCCCCCO)S(C)(=O)=O)nn(CC(F)(F)F)c23)c([C@H](Cc2cc(F)cc(F)c2)NC(=O)Cn2nc(C(F)(F)F)c3c2C(F)(F)[C@@H]2C[C@H]32)n1)S(C)(=O)=O [Compound 103, 5-hydroxypentyl (4-chloro-7-(2-((S)-1-(2-((3bS,4aR)-5,5-difluoro-3-(trifluoromethyl)-3b,4,4a,5-tetrahydro-1H-cyclopropa[3,4]cyclopenta[1,2-c]pyrazol-1-yl)acetamido)-2-(3,5-difluorophenyl)ethyl)-6-(3-methyl-3-(methylsulfonyl)but-1-yn-1-yl)pyridin-3-yl)-1-(2,2,2-trifluoroethyl)-1H-indazol-3-yl)(methylsulfonyl)carbamate]
10 | 1 μM | 89 μM | CC(C)(C#Cc1ccc(-c2ccc(Cl)c3c(N(C(=O)OCCCCCOP(=O)(O)O)S(C)(=O)=O)nn(CC(F)(F)F)c23)c([C@H](Cc2cc(F)cc(F)c2)NC(=O)Cn2nc(C(F)(F)F)c3c2C(F)(F)[C@@H]2C[C@H]32)n1)S(C)(=O)=O [Compound 104, 5-(phosphonooxy)pentyl (4-chloro-7-(2-((S)-1-(2-((3bS,4aR)-5,5-difluoro-3-(trifluoromethyl)-3b,4,4a,5-tetrahydro-1H-cyclopropa[3,4]cyclopenta[1,2-c]pyrazol-1-yl)acetamido)-2-(3,5-difluorophenyl)ethyl)-6-(3-methyl-3-(methylsulfonyl)but-1-yn-1-yl)pyridin-3-yl)-1-(2,2,2-trifluoroethyl)-1H-indazol-3-yl)(methylsulfonyl)carbamate]
11 | 24 μM | 1 μM | CC(C)(C#Cc1ccc(-c2ccc(Cl)c3c(N(C(=O)OCCN4CCOCC4)S(C)(=O)=O)nn(CC(F)(F)F)c23)c([C@H](Cc2cc(F)cc(F)c2)NC(=O)Cn2nc(C(F)(F)F)c3c2C(F)(F)[C@@H]2C[C@H]32)n1)S(C)(=O)=O [Compound 114, 2-morpholinoethyl (4-chloro-7-(2-((S)-1-(2-((3bS,4aR)-5,5-difluoro-3-(trifluoromethyl)-3b,4,4a,5-tetrahydro-1H-cyclopropa[3,4]cyclopenta[1,2-c]pyrazol-1-yl)acetamido)-2-(3,5-difluorophenyl)ethyl)-6-(3-methyl-3-(methylsulfonyl)but-1-yn-1-yl)pyridin-3-yl)-1-(2,2,2-trifluoroethyl)-1H-indazol-3-yl)(methylsulfonyl)carbamate]
12 | 1/1 μM | 1/1 μM | C[C@H](OC(=O)N(c1nn(CC(F)(F)F)c2c(-c3ccc(C#CC(C)(C)S(C)(=O)=O)nc3[C@H](Cc3cc(F)cc(F)c3)NC(=O)Cn3nc(C(F)(F)F)c4c3C(F)(F)[C@@H]3C[C@H]43)ccc(Cl)c12)S(C)(=O)=O)C(=O)O [Compound 115, (S)-2-(((4-chloro-7-(2-((S)-1-(2-((3bS,4aR)-5,5-difluoro-3-(trifluoromethyl)-3b,4,4a,5-tetrahydro-1H-cyclopropa[3,4]cyclopenta[1,2-c]pyrazol-1-yl)acetamido)-2-(3,5-difluorophenyl)ethyl)-6-(3-methyl-3-(methylsulfonyl)but-1-yn-1-yl)pyridin-3-yl)-1-(2,2,2-trifluoroethyl)-1H-indazol-3-yl)(methylsulfonyl)carbamoyl)oxy)propanoic acid]

Reference: patent US12404262B2 (priority 2021, dated 2025)
